Reference: patent US10807970B2 (priority 2016, dated 2020)

Each compound was assayed against human σ1 receptor (Homo sapiens, UniProt Q99720) (assay: Human σ1 receptor radioligand assay ([3H](+)-pentazocine, transfected HEK-293 membranes)). Settings: one class symbol for both Ki-σ1 (human σ1 receptor, A1) and Ki-μ (human μ-opioid receptor, A2).
human σ1 receptor, sequence (Q99720 whole entry): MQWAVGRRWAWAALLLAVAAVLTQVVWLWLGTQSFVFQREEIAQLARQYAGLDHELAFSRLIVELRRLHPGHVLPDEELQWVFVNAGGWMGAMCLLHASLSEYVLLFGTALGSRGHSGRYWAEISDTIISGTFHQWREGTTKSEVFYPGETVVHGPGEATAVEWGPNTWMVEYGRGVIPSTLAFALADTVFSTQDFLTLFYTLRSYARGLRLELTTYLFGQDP
Type: binding
Design: μ and σ1 dual binding: key to the marks not given beside the values
Description: Human σ1 Receptor Radioligand Assay
To investigate binding properties of test compounds to human σ1 receptor, transfected HEK-293 membranes and [^3H](+)-pentazocine (Perkin Elmer, NET-1056), as the radioligand, were used. The assay was carried out with 7 μg of membrane suspension, 5 nM of [^3H](+)-pentazocine in either absence or presence of either buffer or 10 μM Haloperidol for total and non-specific binding, respectively. Binding buffer contained Tris-HCl 50 mM at pH 8. Plates were incubated at 37° C. for 120 minutes. After the incubation period, the reaction mix was then transferred to MultiScreen HTS, FC plates (Millipore), filtered and plates were washed 3 times with ice-cold 10 mM Tris-HCL (pH7.4). Filters were dried and counted at approximately 40% efficiency in a MicroBeta scintillation counter (Perkin-Elmer) using EcoScint liquid scintillation cocktail
With `CC(C)OCCN1CC2CN(C3(C(=O)c4ccccn4)CCOC(C)(C)C3)CC2C1` (stereo not drawn) [Example 73, (4-(5-(2-isopropoxyethyl)hexahydropyrrolo[3,4-c]pyrrol-2(1H)-yl)-2,2-dimethyltetrahydro-2H-pyran-4-yl)(pyridin-2-yl)methanone] the “μ and σ1 dual binding” value was “++”. In the case of `CC(C)OCCN1CCN(C2(C(=O)c3ccccn3)CCOC2)CC1` (stereo not drawn) [Example 74, (3-(4-(2-isopropoxyethyl)piperazin-1-yl)tetrahydrofuran-3-yl)(pyridin-2-yl)methanone], the “μ and σ1 dual binding” value is reported as “++”. With `CCC1(N2CCN(CCC(C)C)CC2)CCOC(C)(C)C1` (stereo not drawn) [Example 78, 1-(4-ethyl-2,2-dimethyltetrahydro-2H-pyran-4-yl)-4-isopentylpiperazine] the “μ and σ1 dual binding” value was “++”. `CC(C)CCN1CCN(C2(C)CCOC(C)(C)C2)CC1` (stereo not drawn) [Example 79, 1-isopentyl-4-(2,2,4-trimethyltetrahydro-2H-pyran-4-yl)piperazine] was tested, and the “μ and σ1 dual binding” value was “++”. With `CCC1(N2CCN(CCc3ccncc3)CC2)CCOC(C)(C)C1` (stereo not drawn) [Example 82, 1-(4-ethyl-2,2-dimethyltetrahydro-2H-pyran-4-yl)-4-(2-(pyridin-4-yl)ethyl)piperazine] the “μ and σ1 dual binding” value was “++”. In the case of `CCC1(N2CCN(CCc3cccnc3)CC2)CCOC(C)(C)C1` (stereo not drawn) [Example 83, 1-(4-ethyl-2,2-dimethyltetrahydro-2H-pyran-4-yl)-4-(2-(pyridin-3-yl)ethyl)piperazine], the “μ and σ1 dual binding” value is reported as “++”. `CCC1(N2CCN(CCc3ccncc3F)CC2)CCOC(C)(C)C1` (stereo not drawn) [Example 84, 1-(4-ethyl-2,2-dimethyltetrahydro-2H-pyran-4-yl)-4-(2-(3-fluoropyridin-4-yl)ethyl)piperazine] was tested, and the “μ and σ1 dual binding” value was “++”. In the case of `CCC1(N2CCN(CCc3ccccn3)CC2)CCOC(C)(C)C1` (stereo not drawn) [Example 87, 1-(4-ethyl-2,2-dimethyltetrahydro-2H-pyran-4-yl)-4-(2-(pyridin-2-yl)ethyl)piperazine], the “μ and σ1 dual binding” value is reported as “++”.

Same assay, conditions: one class symbol for both Ki-σ1 (human σ1 receptor, A1) and Ki-μ (human μ-opioid receptor, A2); read-out: μ and σ1 dual binding
With `CC(C)OCCN1CCC(C2(C(=O)c3ccccn3)CCOC(C)(C)C2)CC1` (stereo not drawn) [Example 77, (4-(1-(2-isopropoxyethyl)piperidin-4-yl)-2,2-dimethyltetrahydro-2H-pyran-4-yl)(pyridin-2-yl)methanone] the Ki was < 0.5 µM. For `CC1(C)CC(C(=O)c2ccccn2)(N2CCN(CCc3cccnc3)CC2)CCO1` (stereo not drawn) [Example 80, (2,2-dimethyl-4-(4-(2-(pyridin-3-yl)ethyl)piperazin-1-yl)tetrahydro-2H-pyran-4-yl)(pyridin-2-yl)methanone], the Ki was > 0.5 µM. `CC1(C)CC(C(=O)c2ccccn2)(N2CCN(CCc3ccncc3)CC2)CCO1` (stereo not drawn) [Example 81, (2,2-dimethyl-4-(4-(2-(pyridin-4-yl)ethyl)piperazin-1-yl)tetrahydro-2H-pyran-4-yl)(pyridin-2-yl)methanone] was tested, and the Ki was > 0.5 µM.

Same assay, conditions: μ and σ1 dual binding, one class symbol for both Ki-σ1 (human σ1 receptor, A1) and Ki-μ (human μ-opioid receptor, A2)
For `CC(C)OCCN1CCC(C2(c3ccccn3)CCOC(C)(C)C2)CC1` (stereo not drawn) [Example 75, 2-(4-(1-(2-isopropoxyethyl)piperidin-4-yl)-2,2-dimethyltetrahydro-2H-pyran-4-yl)pyridine], the Ki was > 0.5 µM. For `CC(C)CCN1CCC(C2(C(=O)c3ccccn3)CCOC(C)(C)C2)CC1` (stereo not drawn) [Example 76, (4-(1-isopentylpiperidin-4-yl)-2,2-dimethyltetrahydro-2H-pyran-4-yl)(pyridin-2-yl)methanone], the Ki was < 0.1 µM. `CC1(C)CC(C(=O)c2ccccn2)(N2CCN(CCc3ccncc3F)CC2)CCO1` (stereo not drawn) [Example 85, (4-(4-(2-(3-fluoropyridin-4-yl)ethyl)piperazin-1-yl)-2,2-dimethyltetrahydro-2H-pyran-4-yl)(pyridin-2-yl)methanone] was tested, and the Ki was < 0.5 µM. For `CC(C)CCN1CCCN(C2(C(=O)c3ccccn3)CCOC(C)(C)C2)CC1` (stereo not drawn) [Example 86, (4-(4-isopentyl-1,4-diazepan-1-yl)-2,2-dimethyltetrahydro-2H-pyran-4-yl)(pyridin-2-yl)methanone], the Ki was < 0.1 µM.
